Experimental data from patent publication US12077503B2, “Substituted cyclic amides and their use as herbicides” (FMC CORPORATION, priority 2015, dated 2024).
Like-named read-outs stand apart in the source and are kept apart here.

Columns and labels:
Assay in all cases: Test A postemergence
Format in all cases: in vivo
[1] = test system: ragweed (common ragweed, Ambrosia elatior); details: Ambrosia artemisiifolia, post-emergence, 240 h, postemergence; for pest or weed control at 125 g/ha: 125 g ai/ha, visual injury on 0 to 100 scale (0 no effect, 100 complete control); for pest or weed control at 500 g/ha: 500 g ai/ha
Procedure, shortened: (§1)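 Visual injury, scored on a 0–100 scale relative to untreated controls, was recorded about 10 d after application. Treatments were a preemergence soil spray over planted seeds or a postemergence spray on plants at the one- to two-leaf stage, 2 to 10 cm tall, all in loam soil–sand blend in the greenhouse.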

[2] = test system: corn (Zea mays); details: Zea mays, post-emergence, 240 h; for Corn plant response rating (crop injury, 0 = no effect, 100 = complete kill) at 125 g/ha / plant injury at 125 g/ha: 125 g ai/ha; for Corn plant response rating (crop injury, 0 = no effect, 100 = complete kill) at 125 g/ha: Postemergence, visual injury after approximately 10 d, 0 to 100 scale where 0 is no effect and 100 is complete control; for Corn plant response rating (crop injury, 0 = no effect, 100 = complete kill) at 500 g/ha / plant injury at 500 g/ha: 500 g ai/ha; for Corn plant response rating (crop injury, 0 = no effect, 100 = complete kill) at 500 g/ha / plant injury at 125 g/ha / plant injury at 500 g/ha: postemergence; for Corn plant response rating (crop injury, 0 = no effect, 100 = complete kill) at 500 g/ha: visual injury, 0 to 100 scale (0 no effect, 100 complete control); for Corn plant response rating (crop injury, 0 = no effect, 100 = complete kill) at 500 g/ha / plant injury at 125 g/ha: approx. 10 d; for plant injury at 125 g/ha: visual injury on 0 to 100 scale (0 no effect, 100 complete control); for plant injury at 125 g/ha / plant injury at 500 g/ha: read-out: Corn plant response rating; for plant injury at 500 g/ha: 0 to 100 scale, 0 is no effect, 100 is complete control
Procedure, shortened: as §1

[3] = test system: giant foxtail (Setaria faberii); details: Setaria faberi, post-emergence, 240 h, postemergence; for pest or weed control at 125 g/ha: 125 g ai/ha, visual injury on 0 to 100 scale (0 no effect, 100 complete control); for pest or weed control at 500 g/ha: 500 g ai/ha
Procedure, shortened: as §1

[4] = test system: Galium (catchweed bedstraw, Galium aparine); details: Galium, post-emergence, 240 h, postemergence; for pest or weed control at 125 g/ha: 125 g ai/ha, visual injury on 0 to 100 scale (0 no effect, 100 complete control); for pest or weed control at 500 g/ha: 500 g ai/ha
Procedure, shortened: as §1

[5] = test system: ryegrass, Italian (Italian ryegrass, Lolium multiflorum); details: Lolium multiflorum, post-emergence, 240 h, postemergence; for pest or weed control at 125 g/ha: 125 g ai/ha, visual injury on 0 to 100 scale (0 no effect, 100 complete control); for pest or weed control at 500 g/ha: 500 g ai/ha
Procedure, shortened: as §1

[6] = test system: wheat (Triticum aestivum); details: Triticum aestivum, post-emergence, 240 h, postemergence; for plant injury at 125 g/ha: 125 g ai/ha, visual injury on 0 to 100 scale (0 no effect, 100 complete control); for plant injury at 500 g/ha: 500 g ai/ha
Procedure, shortened: as §1

[7] = approx. 10 d, read-out: Ragweed plant response rating
[8] = visual injury, 0 to 100 scale (0 no effect, 100 complete control), approx. 10 d, read-out: Plant response rating, Ragweed
[9] = approx. 10 d, read-out: Foxtail, Giant plant response rating
[10] = visual injury, 0 to 100 scale (0 no effect, 100 complete control), approx. 10 d, read-out: Plant response rating, Foxtail, Giant
[11] = approx. 10 d, read-out: Galium plant response rating
[12] = visual injury, 0 to 100 scale (0 no effect, 100 complete control), approx. 10 d, read-out: Plant response rating, Galium
[13] = approx. 10 d, read-out: Ryegrass, Italian plant response rating
[14] = visual injury, 0 to 100 scale (0 no effect, 100 complete control), approx. 10 d, read-out: Plant response rating, Ryegrass, Italian
[15] = approx. 10 d, read-out: Wheat plant response rating
[16] = visual injury, 0 to 100 scale (0 no effect, 100 complete control), approx. 10 d, read-out: Plant response rating, Wheat
[17] = 0 to 100 scale, 0 is no effect, 100 is complete control, read-out: Ragweed plant response rating
[18] = 0 to 100 scale, 0 is no effect, 100 is complete control, read-out: Foxtail, Giant plant response rating
[19] = 0 to 100 scale, 0 is no effect, 100 is complete control, read-out: Galium plant response rating
[20] = 0 to 100 scale, 0 is no effect, 100 is complete control, read-out: Ryegrass, Italian plant response rating
[21] = 0 to 100 scale, 0 is no effect, 100 is complete control, read-out: Wheat plant response rating

Row | Compound | pest or weed control at 125 g/ha [1, 7] [%] | pest or weed control at 500 g/ha [1, 8] [%] | Corn plant response rating (crop injury, 0 = no effect, 100 = complete kill) at 125 g/ha [2] [%] | Corn plant response rating (crop injury, 0 = no effect, 100 = complete kill) at 500 g/ha [2] [%] | pest or weed control at 125 g/ha [3, 9] [%] | pest or weed control at 500 g/ha [3, 10] [%] | pest or weed control at 125 g/ha [4, 11] [%] | pest or weed control at 500 g/ha [4, 12] [%] | pest or weed control at 125 g/ha [5, 13] [%] | pest or weed control at 500 g/ha [5, 14] [%] | plant injury at 125 g/ha [6, 15] [%] | plant injury at 500 g/ha [6, 16] [%] | plant injury at 125 g/ha [2] [%] | pest or weed control at 500 g/ha [1, 17] [%] | plant injury at 500 g/ha [2] [%] | pest or weed control at 500 g/ha [3, 18] [%] | pest or weed control at 500 g/ha [4, 19] [%] | pest or weed control at 500 g/ha [5, 20] [%] | plant injury at 500 g/ha [6, 21] [%]
1 | CC(C)COc1cccc([C@H]2CN(C)C(=O)[C@@H]2C(=O)Nc2ccc(F)cc2F)c1 [Compound 1030] | 0 | 0 | 20 | 50 | 70 | 90 | 40 | 60 | 0 | 0 | 30 | 60 |  |  |  |  |  |  | 
2 | O=C(Nc1ccccc1F)[C@H]1C(=O)N(C2CC2)CC[C@@H]1c1ccccc1 [Compound 1031] | 0 | 0 | 0 | 0 | 0 | 0 | 0 | 0 | 0 | 0 | 0 | 0 |  |  |  |  |  |  | 
3 | Cc1ccc([C@H]2CNC(=O)[C@@H]2C(=O)Nc2ccccc2F)cc1C [Compound 1033] | 0 | 30 | 0 | 40 | 30 | 80 | 40 | 60 | 0 | 20 | 0 | 0 |  |  |  |  |  |  | 
4 | Cc1ccc([C@H]2CNC(=O)[C@@H]2C(=O)Nc2cccc(F)c2C)cc1C [Compound 1035] | 0 | 0 | 50 | 60 | 50 | 90 | 20 | 50 | 40 | 60 | 20 | 70 |  |  |  |  |  |  | 
5 | CSc1ccccc1NC(=O)[C@H]1C(=O)NC[C@@H]1c1ccc(C)c(C)c1 [Compound 1036] | 0 | 10 | 0 | 20 | 0 | 60 | 20 | 30 | 0 | 60 | 0 | 20 |  |  |  |  |  |  | 
6 | Cc1cc([C@H]2CNC(=O)[C@@H]2C(=O)Nc2cccc(F)c2F)ccc1C(F)(F)F [Compound 1040] | 0 |  | 60 | 80 | 80 | 90 | 50 | 70 | 30 |  | 20 |  |  |  |  |  |  |  | 
7 | Cc1cc([C@H]2CNC(=O)[C@@H]2C(=O)Nc2ccccc2S(C)(=O)=O)ccc1C(F)(F)F [Compound 1041] | 0 |  |  | 30 | 0 | 50 | 40 | 60 | 0 |  | 0 |  | 0 |  |  |  |  |  | 
8 | CN1C[C@H](c2cc(F)cc(F)c2)[C@@H](C(=O)Nc2ncccc2Cl)C1=O [Compound 1097] | 0 |  |  |  | 0 |  | 0 |  | 0 |  | 0 |  | 0 | 0 | 0 | 0 | 0 | 0 | 0
9 | Cc1cc([C@H]2CN(C)C(=O)[C@@H]2C(=O)Nc2ccccc2F)ccc1Br [Compound 1098] | 0 |  |  |  | 80 |  | 30 |  | 40 |  | 0 |  | 0 | 0 | 70 | 90 | 40 | 50 | 50
10 | Cc1cc([C@H]2CN(C)C(=O)[C@@H]2C(=O)Nc2cccc(F)c2F)ccc1Br [Compound 1099] | 0 |  |  |  | 80 |  | 50 |  | 40 |  | 20 |  | 50 | 40 | 60 | 80 | 60 | 60 | 50
11 | O=C1NC[C@H](c2cscn2)[C@H]1C(=O)Nc1cccc(F)c1F [Compound 1111] | 0 |  |  |  | 20 |  | 0 |  | 0 |  | 0 |  | 0 | 0 | 0 | 50 | 0 | 0 | 0
12 | O=C1NC[C@H](c2cc(C(F)F)cs2)[C@H]1C(=O)Nc1ccccc1F [Compound 1116] | 0 |  |  |  | 0 |  | 0 |  | 0 |  | 0 |  | 0 | 0 | 0 | 0 | 40 | 20 | 20
13 | O=C1NC[C@H](c2cc(C(F)F)cs2)[C@H]1C(=O)Nc1cccc(F)c1F [Compound 1117] | 0 |  |  |  | 20 |  | 40 |  | 0 |  | 0 |  | 20 | 30 | 40 | 70 | 40 | 40 | 70
